Laboratory results from the NIST ThermoML archive (doi:10.1016/j.fluid.2014.09.014).

Experiment: refractive index (other wavelength) (dimensionless); xn = mol fraction of the nth substance listed
Conditions: 298.15 K, 101 kPa, Liquid, Standard Abbe refractometry

CC(C)OC(C)C [diisopropyl ether] + CO
refractive index
Conditions	Wavelength=587.6 nm	Wavelength=589.3 nm	Wavelength=632.8 nm	Wavelength=644 nm
x2 = 0	–	1.3653	1.36402	1.36373
x2 = 0.0423	–	1.36528	1.364	1.3637
x2 = 0.0424	–	1.36525	1.36397	1.36367
x2 = 0.082	–	1.36523	1.36395	1.36365
x2 = 0.0822	–	1.36524	1.36396	1.36367
x2 = 0.1171	–	1.36508	1.36381	1.36352
x2 = 0.1271	–	1.3651	1.36381	1.36352
x2 = 0.1827	–	1.36473	1.36346	1.36317
x2 = 0.2162	–	1.36528	1.364	1.3637
x2 = 0.251	–	1.36465	1.36338	1.36308
x2 = 0.3298	–	1.36386	1.3626	1.36231
x2 = 0.3577	–	1.36246	1.36121	1.36091
x2 = 0.4497	–	1.36158	1.36034	1.36004
x2 = 0.4525	1.36217	1.36212	1.36087	1.36057
x2 = 0.522	1.35991	1.35986	1.35863	1.35833
x2 = 0.5543	1.35952	1.35947	1.35812	1.35777
x2 = 0.609	1.35663	1.35658	1.35536	1.35507
x2 = 0.6529	1.35515	1.3551	1.35389	1.3536
x2 = 0.7504	1.3513	1.35125	1.35005	1.34978
x2 = 0.804	1.3471	1.34706	1.3459	1.34562
x2 = 0.807	1.34699	1.34694	1.34578	1.3455
x2 = 0.8727	1.34182	1.34177	1.34062	1.34036
x2 = 0.9233	1.33495	1.3349	1.33379	–
x2 = 0.9253	1.33679	1.33674	1.33564	–
x2 = 0.9527	1.33364	1.33359	1.33248	–
x2 = 0.9773	1.33017	1.33012	1.32903	–
x2 = 0.989	1.329	1.32895	1.32786	–
x2 = 0.9964	1.32759	1.32754	1.32645	–
